Measurements: patent US7037502B2, “Peptide with the amino acid sequence of KVLDGQDP having anti-inflammatory properties” (priority 2001, dated 2006)
“Also recorded” adds a separate entry of the source.

Test system: eosinophil infiltration of conjunctiva
Test: Allergic conjunctivitis to ragweed in guinea pig: histology, eosinophil count in conjunctiva
Format: in vivo, Hartley female guinea pig
Settings: allergic conjunctivitis model in guinea pig, summary of Example 2; listed as SEQ ID NO:3
Procedure: The peptides of the present invention were analyzed in experimental model of allergic conjunctivitis to ragweed (giant ragweed; Ambrosia trifida) in guinea pig. Hartley strain of guinea pig was selected according to previous reports of conjunctival anaphylaxis (Calonge M., et al., Acta Ophthalmol 68; 470–476, 1990) and females were chosen based on the sex dimorphism of ocular mucosal immunity with the protective role of male hormones (Saruya S., et al., Act Soc Ophthalmol Jap 72; 833–845, 1968). The conjunctival redness and edema are main signs of seasonal allergic conjunctivitis and eosionphil infiltration is the hallmark of the conjunctival histology in patients with allergic conjunctivitis (Abelson M B., et al., Arch Ophthalmol. 101; 555–556, 1983; Butrus S I., et al., Int. Ophthalmol. Clin. 28; 324–328, 1988)
86 Hartley female guinea pigs, 200–250 g were housed in the animal facilities of the Asan Institute for Life Sciences (Korea), given guinea pig chow and water ad libitum, and cared for in accordance with the Declaration of Helsinki and the National Institute of Health Guide to the Care and Use of the Laboratory Animals (Korea).
On day 15, immunized guinea pigs were divided 14 groups, 6 for each group. 11 anti-inflammatory peptides including new recombinants, dexamethasone eye drop (Maxidex, 0.1% dexamethasone, Alcon) and anti-histamine eye drop (Livostin, levocabastine, Janssen) were used for 13 groups, and no treatment for one group. Normal controls were employed as 6 non-immunized and non-treated guinea pigs. […] All the procedures were followed experimental model of allergic conjunctivitis described by Merayo-Lloves et al (Experimental model of allergic conjunctivitis to ragweed in guinea pig. Curr. Eye Res. 14; 487–494, 1995).
Anti-inflammatory peptides were resolved in sterile saline (100 μmol/40 μl concentration). All peptides and dexamethasone eye solutions were challenged 3 hour prior to the last pollen application on day 15, 10 minutes after pollen application, and 4 times thereafter at the 3 hour interval.
The orbits were excentrated after the animals were killed with CO2 asphyxia, and specimens were prepared for light microscopic examination. Sectioned specimens were stained with hematoxylin-eosin.
Eosinophils in the standardized fields of conjunctival epithelium, the immediate subepithelial, and the stroma were counted in three non-consecutive fields (magnification ×400) for each treatment in each experiment (12 eyes in each group).

Row | Compound | Anti-inflammatory activity, overall conclusion in words
1 | DPVKG [Peptide E2, synthetic peptide of the invention] | excellent anti-inflammatory activity in comparison with other known peptide sequences; also recorded: much higher activity than the steroidal anti-inflammatory dexamethasone

Same assay, conditions: eosinophils in three fields of conjunctiva (×400), 12 eyes per group, eye drops

Row | Compound | Statistical evaluation of eosinophil count (Mann-Whitney test), P compared to Livostine | Statistical evaluation of eosinophil count (Mann-Whitney test), P compared to No treatment group | Statistical evaluation of eosinophil count (Mann-Whitney test), P compared to Dexamethasone
2 | C[C@@H]1C[C@H]2[C@@H]3CCC4=CC(=O)C=C[C@]4(C)[C@@]3(F)[C@@H](O)C[C@]2(C)[C@@]1(O)C(=O)CO [Dexamethasone, dexamethasone] | 0.932 | 0.000 | 
3 | DPVKG [Peptide E2, synthetic peptide of the invention] | 0.060 | 0.000 | 0.028
4 | GQDP [Peptide E3] | 0.000 | 0.001 | 0.007
5 | GTLAKKLT [Peptide P2] | 0.000 | 0.004 | 0.000
6 | HDMNKVLDL [Peptide A2, known peptide, antiflammin] | 0.000 | 0.161 | 0.000
7 | KVLD [Peptide A4, core tetrapeptide of antiflammins] | 0.045 | 0.001 | 0.028
8 | MQMKKVLDS [Peptide A3, known peptide, antiflammin] | 0.000 | 0.007 | 0.000
9 | PVKG [Peptide E1] | 0.000 | 0.002 | 0.000
10 | RKLMEI (PKLMEI) [Peptide P1] | 0.000 | 0.002 | 0.000
11 | SHLRKVFDK [Peptide A1, known peptide, antiflammin] | 0.006 | 0.000 | 0.004

Same assay, conditions: n=12, P<0.01, SD<10%, Mann-Whitney test

Row | Compound | Histological signs (eosinophil infiltration), result in words
12 | DPVKG [Peptide E2, synthetic peptide of the invention] | statistically significant difference from other groups

Test system: allergic conjunctivitis to ragweed (Ambrosia trifida)
Test: Allergic conjunctivitis to ragweed in guinea pig: clinical scores (conjunctival edema and redness)
Format: in vivo, Hartley female guinea pig
Settings: conjunctival edema and redness score 0-4+, 20 min after allergen challenge, 12 eyes per group, eye drops
Procedure: The peptides of the present invention were analyzed in experimental model of allergic conjunctivitis to ragweed (giant ragweed; Ambrosia trifida) in guinea pig. Hartley strain of guinea pig was selected according to previous reports of conjunctival anaphylaxis (Calonge M., et al., Acta Ophthalmol 68; 470–476, 1990) and females were chosen based on the sex dimorphism of ocular mucosal immunity with the protective role of male hormones (Saruya S., et al., Act Soc Ophthalmol Jap 72; 833–845, 1968). The conjunctival redness and edema are main signs of seasonal allergic conjunctivitis and eosionphil infiltration is the hallmark of the conjunctival histology in patients with allergic conjunctivitis (Abelson M B., et al., Arch Ophthalmol. 101; 555–556, 1983; Butrus S I., et al., Int. Ophthalmol. Clin. 28; 324–328, 1988) 86 Hartley female guinea pigs, 200–250 g were housed in the animal facilities of the Asan Institute for Life Sciences (Korea), given guinea pig chow and water ad libitum, and cared for in accordance with the Declaration of Helsinki and the National Institute of Health Guide to the Care and Use of the Laboratory Animals (Korea). […] On day 15, immunized guinea pigs were divided 14 groups, 6 for each group. 11 anti-inflammatory peptides including new recombinants, dexamethasone eye drop (Maxidex, 0.1% dexamethasone, Alcon) and anti-histamine eye drop (Livostin, levocabastine, Janssen) were used for 13 groups, and no treatment for one group. Normal controls were employed as 6 non-immunized and non-treated guinea pigs. […] All the procedures were followed experimental model of allergic conjunctivitis described by Merayo-Lloves et al (Experimental model of allergic conjunctivitis to ragweed in guinea pig. Curr. Eye Res. 14; 487–494, 1995). Anti-inflammatory peptides were resolved in sterile saline (100 μmol/40 μl concentration). All peptides and dexamethasone eye solutions were challenged 3 hour prior to the last pollen application on day 15, 10 minutes after pollen application, and 4 times thereafter at the 3 hour interval. Conjunctival edema and redness were judged in room light and under an operating microscope (Zeiss, Germany). The evaluation was performed in a masked fashion at 20 min after allergen challenge and each clinical sign was scored on a scale 0–4+ (0 absent, 1+ minimal, 2+ mild, 3+ moderate, 4+ severe), adapted for guinea pig from previous report (Merayo-Lloves et al: Experimental model of allergic conjunctivitis to ragweed in guinea pig. Curr. Eye Res. 14; 487–494, 1995). Clinical scores of each group (12 eyes in each group) were analyzed.

Row | Compound | Statistical evaluation of clinical scores (Mann-Whitney test), P compared to No treatment group | Statistical evaluation of clinical scores (Mann-Whitney test), P compared to Dexamethasone | Statistical evaluation of clinical scores (Mann-Whitney test), P compared to Livostine
13 | C[C@@H]1C[C@H]2[C@@H]3CCC4=CC(=O)C=C[C@]4(C)[C@@]3(F)[C@@H](O)C[C@]2(C)[C@@]1(O)C(=O)CO [Dexamethasone, dexamethasone] | 0.000 |  | 
14 | DPVKG [Peptide E2, synthetic peptide of the invention] | 0.000 | 0.050 | 0.039
15 | GQDP [Peptide E3] | 0.016 | 0.000 | 0.002
16 | GTLAKKLT [Peptide P2] | 0.279 | 0.000 | 0.000
17 | HDMNKVLDL [Peptide A2, known peptide, antiflammin] | 0.382 | 0.002 | 0.003
18 | KVLD [Peptide A4, core tetrapeptide of antiflammins] | 0.082 | 0.000 | 0.000
19 | MQMKKVLDS [Peptide A3, known peptide, antiflammin] | 0.000 | 0.089 | 0.043
20 | PVKG [Peptide E1] | 0.001 | 0.017 | 0.012
21 | RKLMEI (PKLMEI) [Peptide P1] | 0.009 | 0.001 | 0.003
22 | SHLRKVFDK [Peptide A1, known peptide, antiflammin] | 0.003 | 0.007 | 0.009

Same assay, conditions: n=12, P<0.01, SD<10%, Mann-Whitney test

Row | Compound | Clinical signs (conjunctival redness and edema scores), result in words
23 | DPVKG [Peptide E2, synthetic peptide of the invention] | statistically significant difference from other groups
24 | MQMKKVLDS [Peptide A3, known peptide, antiflammin] | statistically significant difference from other groups
25 | PVKG [Peptide E1] | statistically significant difference from other groups
26 | RKLMEI (PKLMEI) [Peptide P1] | statistically significant difference from other groups
27 | SHLRKVFDK [Peptide A1, known peptide, antiflammin] | statistically significant difference from other groups

Biological target: PLA2 (Sus scrofa, UniProt P00592)
Test: not given
Settings: Miele et al., Nature 335, 726-730, 1988; cited from earlier work

Chain of PLA2 (P00592 23-146): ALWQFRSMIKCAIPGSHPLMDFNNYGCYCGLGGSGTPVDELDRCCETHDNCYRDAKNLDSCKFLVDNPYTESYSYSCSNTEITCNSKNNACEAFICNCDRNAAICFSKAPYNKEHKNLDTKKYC

Row | Compound | PLA2 inhibitor activity, in words
28 | KVLD [Peptide A4, core tetrapeptide of antiflammins] | inactive
